Test results taken from PubChem BioAssay AID192 (DTP/NCI, 2004).
“And” between values parts separate entries of the source, which are not always exact repeats. Equal entries are not always repeated. Inconclusive results and toxic doses are left out.

Tested on: BDF1 mice, B16 melanoma ip, median survival T/C
Test: NCI In Vivo Anticancer Drug Screen. Data for tumor model B16 Melanoma (intraperitoneal) in B6D2F1 (BDF1) mice
Conditions: endpoint: median survival time, higher = longer survival
How it was run: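 The ratio T/C compares compound-treated mice with vehicle-treated controls, using survival or tumor size as the endpoint in a transplantable tumor model.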

[1] = dose: 12.5 mg/kg/injection, schedule: Q01DX009 (ip), vehicle: saline with Tween-80
[2] = dose: 25.0 mg/kg/injection, schedule: Q01DX009 (ip), vehicle: saline with Tween-80
[3] = dose: 50.0 mg/kg/injection, schedule: Q01DX009 (ip), vehicle: saline with Tween-80
[4] = dose: 50.0 mg/kg/injection, schedule: Q04DX003 (ip), vehicle: Klucel (hydroxypropylcellulose) (HPC)
[5] = dose: 100.0 mg/kg/injection, schedule: Q04DX003 (ip), vehicle: Klucel (hydroxypropylcellulose) (HPC)
[6] = dose: 100.0 mg/kg/injection, schedule: Q01DX009 (ip), vehicle: saline with Tween-80
[7] = dose: 200.0 mg/kg/injection, schedule: Q01DX009 (ip), vehicle: saline with Tween-80
[8] = dose: 12.5 mg/kg/injection, schedule: Q01DX009 (ip), vehicle: Klucel (hydroxypropylcellulose) (HPC)
[9] = dose: 25.0 mg/kg/injection, schedule: Q01DX009 (ip), vehicle: Klucel (hydroxypropylcellulose) (HPC)
[10] = dose: 50.0 mg/kg/injection, schedule: Q01DX009 (ip), vehicle: Klucel (hydroxypropylcellulose) (HPC)
[11] = dose: 100.0 mg/kg/injection, schedule: Q01DX009 (ip), vehicle: Klucel (hydroxypropylcellulose) (HPC)
[12] = dose: 200.0 mg/kg/injection, schedule: Q01DX009 (ip), vehicle: Klucel (hydroxypropylcellulose) (HPC)
[13] = dose: 400.0 mg/kg/injection, schedule: Q01DX009 (ip), vehicle: Klucel (hydroxypropylcellulose) (HPC)

Q: With `O=C(CBr)CC(O)(C(F)(F)F)C(F)(F)F` as the compound, how does the T/C (dose: 0.75 mg/kg/injection, schedule: Q01DX009 (ip), vehicle: saline) read?
A: 100 % of control

Q: And the T/C (dose: 0.75 mg/kg/injection, schedule: Q04DX003 (ip), vehicle: saline)?
A: 97 % of control

Q: And the T/C (dose: 1.5 mg/kg/injection, schedule: Q01DX009 (ip), vehicle: saline)?
A: 105 % of control

Q: What about the T/C (dose: 1.5 mg/kg/injection, schedule: Q04DX003 (ip), vehicle: saline) of the same compound?
A: 100 % of control

Q: And the T/C (dose: 3.0 mg/kg/injection, schedule: Q01DX009 (ip), vehicle: saline)?
A: 94 % of control

Q: And the T/C (dose: 3.0 mg/kg/injection, schedule: Q04DX003 (ip), vehicle: saline)?
A: 100 % of control and 105 % of control

Q: Which T/C (dose: 100.0 mg/kg/injection, schedule: Q04DX003 (sc), vehicle: steriod suspending solution) does the source give for `COc1cccc2c1CCC1=C2CC=C2CC3(CCC21C)OCCO3` (configuration not stated) here?
A: 104 % of control

Q: What about the T/C (dose: 200.0 mg/kg/injection, schedule: Q04DX003 (sc), vehicle: steriod suspending solution) of the same compound?
A: 86 % of control

Q: And the T/C (dose: 400.0 mg/kg/injection, schedule: Q04DX003 (sc), vehicle: steriod suspending solution)?
A: 97 % of control

Q: For `O=C1CCC(c2ccccc2)=NN1`, which T/C (dose: 6.25 mg/kg/injection, schedule: Q01DX009 (ip), vehicle: saline with Tween-80) is on record?
A: 102 % of control

Q: What about the T/C [1] of the same compound?
A: 102 % of control

Q: What about the T/C [2] of the same compound?
A: 102 % of control

Q: And the T/C [3]?
A: 89 % of control and 94 % of control

Q: With `COc1cccc(NC(=O)Nc2ccccc2Cl)c1` as the compound, how does the T/C (dose: 100.0 mg/kg/injection, schedule: Q01DX009 (ip), vehicle: gum acacia) read?
A: 96 % of control

Q: What about the T/C (dose: 200.0 mg/kg/injection, schedule: Q01DX009 (ip), vehicle: gum acacia) of the same compound?
A: 96 % of control

Q: And the T/C (dose: 400.0 mg/kg/injection, schedule: Q01DX009 (ip), vehicle: gum acacia)?
A: 88 % of control

Q: What does the source list for `COc1cccc(CC(C)[N+](=O)[O-])c1` (configuration not stated)?
A: T/C (dose: 45.0 mg/kg/injection, schedule: Q01DX009 (ip), vehicle: saline with Tween-80): 109 % of control; T/C (dose: 90.0 mg/kg/injection, schedule: Q01DX009 (ip), vehicle: saline with Tween-80): 100 % of control; T/C (dose: 180.0 mg/kg/injection, schedule: Q01DX009 (ip), vehicle: saline with Tween-80): 86 % of control

Q: What does the source list for `CC1(CO)C(O)CCC2(C)C1CCC1CC3CC12CCC3(O)CO` (configuration not stated)?
A: T/C (dose: 0.78 mg/kg/injection, schedule: Q03HX020 (oral), vehicle: Klucel (hydroxypropylcellulose) (HPC)): 97 % of control; T/C (dose: 1.56 mg/kg/injection, schedule: Q03HX020 (oral), vehicle: Klucel (hydroxypropylcellulose) (HPC)): 107 % of control; T/C (dose: 3.12 mg/kg/injection, schedule: Q03HX020 (ip), vehicle: Klucel (hydroxypropylcellulose) (HPC)): 89 % of control; T/C (dose: 3.12 mg/kg/injection, schedule: Q03HX020 (oral), vehicle: Klucel (hydroxypropylcellulose) (HPC)): 99 % of control; T/C (dose: 6.25 mg/kg/injection, schedule: Q03HX020 (ip), vehicle: Klucel (hydroxypropylcellulose) (HPC)): 108 % of control; T/C (dose: 6.25 mg/kg/injection, schedule: Q03HX020 (oral), vehicle: Klucel (hydroxypropylcellulose) (HPC)): 102 % of control; T/C (dose: 12.5 mg/kg/injection, schedule: Q03HX020 (ip), vehicle: Klucel (hydroxypropylcellulose) (HPC)): 118 % of control; T/C (dose: 12.5 mg/kg/injection, schedule: Q03HX020 (oral), vehicle: Klucel (hydroxypropylcellulose) (HPC)): 99 % of control; T/C (dose: 25.0 mg/kg/injection, schedule: Q03HX020 (ip), vehicle: Klucel (hydroxypropylcellulose) (HPC)): 115 % of control; T/C (dose: 25.0 mg/kg/injection, schedule: Q03HX020 (oral), vehicle: Klucel (hydroxypropylcellulose) (HPC)): 98 % of control; T/C (dose: 25.0 mg/kg/injection, schedule: Q04DX003 (ip), vehicle: Klucel (hydroxypropylcellulose) (HPC)): 100 % of control; T/C (dose: 50.0 mg/kg/injection, schedule: Q03HX020 (ip), vehicle: Klucel (hydroxypropylcellulose) (HPC)): 176 % of control; T/C (dose: 50.0 mg/kg/injection, schedule: Q03HX020 (oral), vehicle: Klucel (hydroxypropylcellulose) (HPC)): 104 % of control; T/C [4]: 105 % of control; T/C (dose: 100.0 mg/kg/injection, schedule: Q03HX020 (oral), vehicle: Klucel (hydroxypropylcellulose) (HPC)): 117 % of control; T/C [5]: 117 % of control; T/C (dose: 400.0 mg/kg/injection, schedule: Q04DX003 (ip), vehicle: Klucel (hydroxypropylcellulose) (HPC)): 163 % of control

Q: What does the source list for `CCOC(=O)C(NC(=O)C(Cc1ccc(N(CCCl)CCCl)cc1)NC(C)=O)C(C)C` (configuration not stated)?
A: T/C (dose: 1.56 mg/kg/injection, schedule: Q01DX009 (ip), vehicle: saline): 99 % of control; T/C (dose: 3.13 mg/kg/injection, schedule: Q01DX009 (ip), vehicle: saline): 98 % of control; T/C (dose: 6.25 mg/kg/injection, schedule: Q01DX009 (ip), vehicle: saline): 102 % of control; T/C (dose: 12.5 mg/kg/injection, schedule: Q04DX003 (ip), vehicle: saline): 105 % of control; T/C (dose: 25.0 mg/kg/injection, schedule: Q04DX003 (ip), vehicle: saline): 97 % of control; T/C (dose: 50.0 mg/kg/injection, schedule: Q04DX003 (ip), vehicle: saline): 102 % of control

Q: Which results are given for `COC(=O)[C@]1(C)CCC[C@]2(C)[C@H]3CC4OO[C@@]3(CC[C@H]21)[C@H]1O[C@@]41C(C)C`?
A: T/C [6]: 100 % of control; T/C [7]: 113 % of control

Q: For `CCCCCCCC(=O)N/N=C(\CO)[C@]1(O)Cc2c(O)c3c(c(O)c2[C@@H](OC2CC(N)C(O)C(C)O2)C1)C(=O)c1c(OC)cccc1C3=O` (some centres not stated), which T/C (dose: 3.13 mg/kg/injection, schedule: Q01DX001 (ip), vehicle: water) is on record?
A: 168 % of control

Q: And the T/C (dose: 6.25 mg/kg/injection, schedule: Q01DX001 (ip), vehicle: water)?
A: 157 % of control and 200 % of control

Q: And the T/C (dose: 12.5 mg/kg/injection, schedule: Q01DX001 (ip), vehicle: water)?
A: 173 % of control and 212 % of control

Q: And the T/C (dose: 25.0 mg/kg/injection, schedule: Q01DX001 (ip), vehicle: water)?
A: 174 % of control and 220 % of control and 231 % of control

Q: What about the T/C (dose: 50.0 mg/kg/injection, schedule: Q01DX001 (ip), vehicle: water) of the same compound?
A: 91 % of control and 228 % of control and 236 % of control

Q: How did the T/C [6] turn out when `Clc1ccc(Sc2ccc(Cl)cc2)cc1` was run?
A: 101 % of control

Q: And the T/C [7]?
A: 95 % of control

Q: And the T/C (dose: 400.0 mg/kg/injection, schedule: Q01DX009 (ip), vehicle: saline with Tween-80)?
A: 93 % of control

Q: With `CCOc1ccc(Br)cc1/C=N\N=C\c1cc(Br)ccc1OCC` as the compound, how does the T/C [8] read?
A: 100 % of control

Q: What about the T/C [9] of the same compound?
A: 88 % of control and 105 % of control

Q: What about the T/C [10] of the same compound?
A: 89 % of control and 94 % of control

Q: `CC(=O)N(C)N(Cc1ccc(C#N)cc1)C(C)=O` was tested. Which T/C [9] did it give?
A: 98 % of control

Q: What about the T/C [10] of the same compound?
A: 96 % of control

Q: And the T/C [11]?
A: 99 % of control

Q: What about the T/C [12] of the same compound?
A: 98 % of control

Q: And the T/C [13]?
A: 95 % of control

Q: How did the T/C [1] turn out when `FC(F)(F)c1nc2nc(Cl)c(Cl)nc2[nH]1` was run?
A: 116 % of control

Q: What about the T/C [2] of the same compound?
A: 114 % of control

Q: And the T/C [3]?
A: 98 % of control

Q: Which T/C [8] does the source give for `C=C1C(=O)O[C@@H]2[C@H]3O[C@]3(C)CCC=C(C)CC[C@@H]12` here?
A: 92 % of control

Q: What about the T/C [9] of the same compound?
A: 87 % of control

Q: And the T/C [10]?
A: 92 % of control

Q: What does the source list for `COC1C=COC2(C)Oc3c(C)c(O)c4c(c3C2=O)/C(=N/C2CCC(O)OC2C)C=C(NC(=O)/C(C)=C\C(=O)C2CC2C(O)C(C)C(O)C(C)C(OC(C)=O)C1C)C4=O` (configuration not stated)?
A: T/C (dose: 4.6 mg/kg/injection, schedule: Q01DX009 (ip), vehicle: saline with Tween-80): 98 % of control; T/C (dose: 18.5 mg/kg/injection, schedule: Q01DX009 (ip), vehicle: saline with Tween-80): 97 % of control

Q: How did the T/C [11] turn out when `COC(=O)c1ccccc1NC(=O)Nc1ccccc1` was run?
A: 110 % of control

Q: What about the T/C [12] of the same compound?
A: 105 % of control

Q: What about the T/C [13] of the same compound?
A: 99 % of control

Q: With `O=C(OCCOCCOCCOC(=O)c1ccccc1)c1ccccc1` as the compound, how does the T/C [13] read?
A: 121 % of control

Q: Which T/C [4] does the source give for `BrC1(Br)CC1(c1ccccc1)c1ccccc1` here?
A: 111 % of control

Q: What about the T/C [5] of the same compound?
A: 105 % of control

Q: What about the T/C (dose: 200.0 mg/kg/injection, schedule: Q04DX003 (ip), vehicle: Klucel (hydroxypropylcellulose) (HPC)) of the same compound?
A: 102 % of control

Q: With `N#Cc1cn(C2OC(CO)C(O)C2O)c2ncnc(N)c12` (configuration not stated) as the compound, how does the T/C (dose: 0.06 mg/kg/injection, schedule: Q01DX009 (ip), vehicle: saline) read?
A: 120 % of control

Q: What about the T/C (dose: 0.12 mg/kg/injection, schedule: Q01DX009 (ip), vehicle: saline) of the same compound?
A: 118 % of control

Q: What about the T/C (dose: 0.25 mg/kg/injection, schedule: Q01DX009 (ip), vehicle: saline) of the same compound?
A: 105 % of control

Q: What does the source list for `O=C1C(=O)c2ccccc2C(O)=C1CCCc1ccc(C2CCCCCC2)cc1`?
A: T/C [2]: 123 % of control; T/C [3]: 114 % of control

Q: How did the T/C (dose: 25.0 mg/kg/injection, schedule: Q01DX009 (ip), vehicle: saline) turn out when `CC1(C)N=C(N)N=C(N)N1c1ccc(OCCCNC(=O)Nc2cccc(S(=O)(=O)F)c2)c(Cl)c1` was run?
A: 102 % of control

Q: What about the T/C (dose: 50.0 mg/kg/injection, schedule: Q01DX009 (ip), vehicle: saline) of the same compound?
A: 124 % of control
